In patent US12331027B2, “Herbicidal pyridylethers” (BASF SE, priority 2017, dated 2025):

What was measured:
Test in all cases: greenhouse post-emergence herbicidal test
Type in all cases: in vivo
[1] = tested on: AMARE (Amaranthus retroflexus); conditions: post-emergence method, application rate 16 g/ha, scale from 0 to 100; for pest or weed control at 16 g/ha: Amaranthus retroflexus, read-out: herbicidal activity against AMARE
Text: (§1) The seeds of the test plants were sown separately for each species. For the post-emergence treatment, the test plants were first grown to a height of 3 to 15 cm, depending on the plant habit, and only then treated with the active ingredients which had been suspended or emulsified in water. For this purpose, the test plants were either sown directly and grown in the same containers, or they were first grown separately as seedlings and transplanted into the test containers a few days prior to treatment. Depending on the species, the plants were kept at 10-25° C. or 20-35° C., respectively. The test period extended over 2 to 4 weeks. During this time, the plants were tended, and their response to the individual treatments was evaluated. Evaluation was carried out using a scale from 0 to 100. 100 means no emergence of the plants, or complete destruction of at least the aerial moieties, and 0 means no damage, or normal course of growth. A good herbicidal activity is given at values of at least 70 and a very good herbicidal activity is given at values of at least 85. [table]

[2] = tested on: CHEAL (Chenopodium album); conditions: post-emergence method, application rate 16 g/ha, scale from 0 to 100
Text: as §1

[3] = tested on: ECHCG (Echinocloa crus-galli); conditions: post-emergence method, application rate 16 g/ha, scale from 0 to 100
Text: as §1

[4] = tested on: SETVI (Setaria viridis); conditions: scale from 0 to 100; for herbicidal activity against SETVI: post-emergence method, application rate 16 g/ha; for damages SETVI: post emergence control 7 days after treatment (greenhouse)
Text: as §1

[5] = tested on: ALOMY (Alopecurus myosuroides); conditions: post emergence control 7 days after treatment (greenhouse), scale from 0 to 100
Text: as §1

[6] = tested on: AVEFA (Avena fatua); conditions: post emergence control 7 days after treatment (greenhouse), scale from 0 to 100
Text: as §1

[7] = tested on: POLCO (Polygonum convolvulus); conditions: post-emergence method, application rate 16 g/ha, scale from 0 to 100
Text: as §1

Structure (SMILES) | pest or weed control at 16 g/ha [1] | herbicidal activity against CHEAL [2] | herbicidal activity against SETVI [4] | also measured
CCOC(=O)COc1ccccc1Oc1nc(-n2nc3n(c2=O)CCCC3)c(Cl)cc1Cl [Example 4, Ethyl 2-[2-[[3,5-dichloro-6-(3-oxo-5,6,7,8-tetrahydro-[1,2,4]triazolo[4,3-a]pyridin-2-yl)-2-pyridyl]oxy]phenoxy]acetate] | ≥ 70% |  |  | 
CCOC(=O)COc1ccccc1Oc1nc(-n2nc(C)n(C(F)F)c2=O)c(F)cc1F [Example 9] |  | good (A good herbicidal activity is given at values of at least 70) | good (A good herbicidal activity is given at values of at least 70) | herbicidal activity against ECHCG [3]: good (A good herbicidal activity is given at values of at least 70)
CCOC(=O)COc1ncccc1Oc1nc(-n2ncc(C(F)(F)F)c(C)c2=O)c(F)cc1Cl [Example 8, Ethyl 2-[[3-[[3-chloro-5-fluoro-6-[5-methyl-6-oxo-4-(trifluoromethyl)pyridazin-1-yl]-2-pyridyl]oxy]-2-pyridyl]oxy]acetate] | ≥ 85% |  |  | 
CCOC(=O)COc1ncccc1Oc1nc(-n2c(=O)n(C)c(=O)n(C)c2=O)c(F)cc1Cl [Example 7, Ethyl 2-[[3-[[3-chloro-6-(3,5-dimethyl-2,4,6-trioxo-1,3,5-triazinan-1-yl)-5-fluoro-2-pyridyl]oxy]-2-pyridyl]oxy]acetate] | ≥ 70% |  |  | 
CCOC(=O)COc1ncccc1Oc1nc(-n2nc(C)n(C(F)F)c2=O)c(F)cc1F [Example 14] |  |  | very good (a very good herbicidal activity is given at values of at least 85) | 
COC(=O)COc1ccc(Oc2nc(-n3ncc(C(F)(F)F)c(C)c3=O)c(F)cc2Cl)cc1 [example 28] |  |  |  | damages ALOMY ([5]; application rate 2 g/ha): 70; damages ALOMY ([5]; application rate 4 g/ha): 75; damages AVEFA ([6]; application rate 8 g/ha): 80; damages AVEFA ([6]; application rate 16 g/ha): 98; damages SETVI ([4]; application rate 2 g/ha): 90; damages SETVI ([4]; application rate 4 g/ha): 95
CCOC(=O)COc1ccccc1Oc1nc(-n2nc(C(F)(F)F)n(C)c2=S)c(F)cc1C#N [Example 18] |  |  | good (A good herbicidal activity is given at values of at least 70) | herbicidal activity against AMARE [1]: very good (a very good herbicidal activity is given at values of at least 85)
CCOC(=O)COc1ccccc1Oc1nc(-n2nc(C(F)(F)F)n(C)c2=O)c(F)cc1C#N [Example 2, Ethyl 2-[2-[[3-cyano-5-fluoro-6-[4-methyl-5-oxo-3-(trifluoromethyl)-1,2,4-triazol-1-yl]-2-pyridyl]oxy]phenoxy]acetate] | ≥ 85% |  | very good (a very good herbicidal activity is given at values of at least 85) | herbicidal activity against ECHCG [3]: very good (a very good herbicidal activity is given at values of at least 85)
CCOC(=O)COc1ccccc1Oc1nc(N2C(=O)OC(=C(C)C)C2=O)c(F)cc1Cl [Example 26, Ethyl 2-[2-[[3-chloro-5-fluoro-6-(5-isopropylidene-2,4-dioxo-oxazolidin-3-yl)-2-pyridyl]oxy]phenoxy]acetate] | ≥ 85% | very good (a very good herbicidal activity is given at values of at least 85) | very good (a very good herbicidal activity is given at values of at least 85) | herbicidal activity against POLCO [7]: very good (a very good herbicidal activity is given at values of at least 85)
CCOC(=O)COc1ccccc1Oc1nc(-n2nc(C)n(C(F)F)c2=O)c(F)cc1Cl [Example 1, Ethyl 2-[2-[[3-chloro-6-[4-(difluoromethyl)-3-methyl-5-oxo-1,2,4-triazol-1-yl]-5-fluoro-2-pyridyl]oxy]phenoxy]acetate] | ≥ 85% |  |  | 
CCOC(=O)COc1ccccc1Oc1nc(-c2nn(C)c(OC(F)F)c2Cl)c(F)cc1Cl [Example 6, Ethyl 2-[2-[[3-chloro-6-[4-chloro-5-(difluoromethoxy)-1-methyl-pyrazol-3-yl]-5-fluoro-2-pyridyl]oxy]phenoxy]acetate] | ≥ 85% |  |  | 
COC(=O)COc1ccc(Oc2cc(-n3ncc(C(F)(F)F)c(C)c3=O)c(F)cc2Cl)cc1 [Example A2-11, reference compound] |  |  |  | damages ALOMY ([5]; application rate 2 g/ha): 60; damages ALOMY ([5]; application rate 4 g/ha): 65; damages AVEFA ([6]; application rate 8 g/ha): 70; damages AVEFA ([6]; application rate 16 g/ha): 80; damages SETVI ([4]; application rate 2 g/ha): 80; damages SETVI ([4]; application rate 4 g/ha): 85
CCOC(=O)COc1ccccc1Oc1nc(-n2nc(C(C)(C)C)oc2=O)c(Cl)cc1Cl [Example 5, Ethyl 2-[2-[[6-(5-tert-butyl-2-oxo-1,3,4-oxadiazol-3-yl)-3,5-dichloro-2-pyridyl]oxy]phenoxy]acetate] | ≥ 85% | very good (a very good herbicidal activity is given at values of at least 85) |  | 
CCOC(=O)COc1ccccc1Oc1nc(N2C(=O)C3=C(CCCC3)C2=O)c(F)cc1Cl [Example 27, ethyl 2-[2-[[3-chloro-6-(1,3-dioxo-4,5,6,7-tetrahydroisoindol-2-yl)-5-fluoro-2-pyridyl]oxy]phenoxy]acetate] | ≥ 85% | very good (a very good herbicidal activity is given at values of at least 85) | very good (a very good herbicidal activity is given at values of at least 85) | herbicidal activity against ECHCG [3]: very good (a very good herbicidal activity is given at values of at least 85); herbicidal activity against POLCO [7]: very good (a very good herbicidal activity is given at values of at least 85)
CCOC(=O)COc1ncccc1Oc1nc(-n2nc(C)n(C(F)F)c2=O)ccc1Cl [Example 16] |  | very good (a very good herbicidal activity is given at values of at least 85) |  | herbicidal activity against AMARE [1]: very good (a very good herbicidal activity is given at values of at least 85); herbicidal activity against POLCO [7]: very good (a very good herbicidal activity is given at values of at least 85)
CCOC(=O)COc1ccccc1Oc1nc(-n2nc(C(F)(F)F)n(C)c2=O)c(F)cc1C(N)=S [Example 3, Ethyl 2-[2-[[3-carbamothioyl-5-fluoro-6-[4-methyl-5-oxo-3-(trifluoromethyl)-1,2,4-triazol-1-yl]-2-pyridyl]oxy]phenoxy]acetate] | ≥ 70% |  |  | 
